# In ChEMBL document CHEMBL3885861, “Open TG-GATES”:
# Species on record: Rattus norvegicus
# Assay: Open TG-GATES - Regimen: Single
# Type: toxicity, organism-based, Sprague-Dawley
# Parameters: regimen Single, gender Male, age 6 weeks
# Details: in vivo, po, 0 mg/kg, route gavage, dose level Control; for APTT / Bas / Eos / Fbg / Hb / Ht / Lym / MCH / MCHC / MCV / Mono / Neu / PT / Plat / RBC / Ret / WBC: tissue Blood; for KIDNEY_L / KIDNEY_R / KIDNEY_TOTAL: tissue Kidney; for LIVER: tissue Liver; for A/G / ALP / ALT / AST / BUN / CRE / Ca / Cl / DBIL / GLC / IP / K / LDH / Na / PL / RALB / TBIL / TC / TG / TP / gamma-GTP: tissue Plasma
compound,measurement,setting,value
Cc1ccc(C)c(OCCCC(C)(C)C(=O)O)c1 [GEMFIBROZIL],TERMINAL_BW,3 h,223.7 g
same,APTT,3 h,16.9 s
same,Bas,3 h,0%
same,Eos,3 h,0.6%
same,Fbg,3 h,276.4 mg/dL
same,Hb,3 h,14 g/dL
same,Ht,3 h,40.2%
same,Lym,3 h,81.2%
same,MCH,3 h,22.6 pg
same,MCHC,3 h,34.9%
same,MCV,3 h,64.7 fL
same,Mono,3 h,2.8%
same,Neu,3 h,14.6%
same,PT,3 h,12.3 s
same,Plat,3 h,124.4 x10_4/uL
same,RBC,3 h,621.6 x10_4/ul
same,Ret,3 h,8%
same,WBC,3 h,76.9 x10_2/uL
same,KIDNEY_L,3 h,1 g
same,KIDNEY_R,3 h,0.9 g
same,KIDNEY_TOTAL,3 h,1.9 g
same,LIVER,3 h,9.8 g
same,A/G,3 h,0.9
same,ALP,3 h,1456 IU/L
same,ALT,3 h,45.2 IU/L
same,AST,3 h,71.2 IU/L
same,BUN,3 h,12.6 mg/dL
same,CRE,3 h,0.2 mg/dL
same,Ca,3 h,11.3 mg/dL
same,Cl,3 h,105 meq/L
same,DBIL,3 h,0.046 mg/dL
same,GLC,3 h,180.6 mg/dL
same,IP,3 h,10.4 mg/dL
same,K,3 h,4.2 meq/L
same,LDH,3 h,74 IU/L
same,Na,3 h,140.2 meq/L
same,PL,3 h,179.2 mg/dL
same,RALB,3 h,2.6 g/dL
same,TBIL,3 h,0.052 mg/dL
same,TC,3 h,86.4 mg/dL
same,TG,3 h,155.8 mg/dL
same,TP,3 h,5.6 g/dL
same,gamma-GTP,3 h,1 IU/L
same,TERMINAL_BW,6 h,221.6 g
same,APTT,6 h,16.7 s
same,Bas,6 h,0%
same,Eos,6 h,0.8%
same,Fbg,6 h,299 mg/dL
same,Hb,6 h,13.9 g/dL
same,Ht,6 h,40.6%
same,Lym,6 h,75.4%
same,MCH,6 h,21.4 pg
same,MCHC,6 h,34.3%
same,MCV,6 h,62.5 fL
same,Mono,6 h,3.6%
same,Neu,6 h,19.2%
same,PT,6 h,12.1 s
same,Plat,6 h,127 x10_4/uL
same,RBC,6 h,649.8 x10_4/ul
same,Ret,6 h,7.3%
same,WBC,6 h,71.6 x10_2/uL
same,KIDNEY_L,6 h,0.9 g
same,KIDNEY_R,6 h,0.9 g
same,KIDNEY_TOTAL,6 h,1.8 g
same,LIVER,6 h,9.1 g
same,A/G,6 h,0.9
same,ALP,6 h,1398 IU/L
same,ALT,6 h,43 IU/L
same,AST,6 h,70.6 IU/L
same,BUN,6 h,9.6 mg/dL
same,CRE,6 h,0.2 mg/dL
same,Ca,6 h,11.1 mg/dL
same,Cl,6 h,107.4 meq/L
same,DBIL,6 h,0.024 mg/dL
same,GLC,6 h,183 mg/dL
same,IP,6 h,10.9 mg/dL
same,K,6 h,4.3 meq/L
same,LDH,6 h,60.8 IU/L
same,Na,6 h,141.6 meq/L
same,PL,6 h,156 mg/dL
same,RALB,6 h,2.7 g/dL
same,TBIL,6 h,0.046 mg/dL
same,TC,6 h,86.2 mg/dL
same,TG,6 h,71.2 mg/dL
same,TP,6 h,5.6 g/dL
same,gamma-GTP,6 h,1.4 IU/L
same,TERMINAL_BW,9 h,223.1 g
same,APTT,9 h,15.5 s
same,Bas,9 h,0%
same,Eos,9 h,1%
same,Fbg,9 h,302.2 mg/dL
same,Hb,9 h,14 g/dL
same,Ht,9 h,41%
same,Lym,9 h,80%
same,MCH,9 h,21.6 pg
same,MCHC,9 h,34.1%
same,MCV,9 h,63.4 fL
same,Mono,9 h,2.6%
same,Neu,9 h,15.8%
same,PT,9 h,12.3 s
same,Plat,9 h,110.9 x10_4/uL
same,RBC,9 h,646.6 x10_4/ul
same,Ret,9 h,7.6%
same,WBC,9 h,69.8 x10_2/uL
same,KIDNEY_L,9 h,0.9 g
same,KIDNEY_R,9 h,0.9 g
same,KIDNEY_TOTAL,9 h,1.8 g
same,LIVER,9 h,8.6 g
same,A/G,9 h,0.9
same,ALP,9 h,1255.2 IU/L
same,ALT,9 h,36.6 IU/L
same,AST,9 h,65.4 IU/L
same,BUN,9 h,12 mg/dL
same,CRE,9 h,0.2 mg/dL
same,Ca,9 h,11.1 mg/dL
same,Cl,9 h,107 meq/L
same,DBIL,9 h,0.02 mg/dL
same,GLC,9 h,194.2 mg/dL
same,IP,9 h,11.9 mg/dL
same,K,9 h,4 meq/L
same,LDH,9 h,58 IU/L
same,Na,9 h,143.4 meq/L
same,PL,9 h,150.2 mg/dL
same,RALB,9 h,2.6 g/dL
same,TBIL,9 h,0.046 mg/dL
same,TC,9 h,82.2 mg/dL
same,TG,9 h,60.4 mg/dL
same,TP,9 h,5.4 g/dL
same,gamma-GTP,9 h,1.2 IU/L
same,TERMINAL_BW,24 h,226.6 g
same,APTT,24 h,14.7 s
same,Bas,24 h,0%
same,Eos,24 h,0.8%
same,Fbg,24 h,286 mg/dL
same,Hb,24 h,13.5 g/dL
same,Ht,24 h,38.9%
same,Lym,24 h,78.2%
same,MCH,24 h,21.7 pg
same,MCHC,24 h,34.7%
same,MCV,24 h,62.6 fL
same,Mono,24 h,2.6%
same,Neu,24 h,17.8%
same,PT,24 h,12 s
same,Plat,24 h,117.7 x10_4/uL
same,RBC,24 h,621.8 x10_4/ul
same,Ret,24 h,6.6%
same,WBC,24 h,87.1 x10_2/uL
same,KIDNEY_L,24 h,1 g
same,KIDNEY_R,24 h,0.9 g
same,KIDNEY_TOTAL,24 h,1.9 g
same,LIVER,24 h,10.2 g
same,A/G,24 h,1
same,ALP,24 h,1725.4 IU/L
same,ALT,24 h,48 IU/L
same,AST,24 h,74.6 IU/L
same,BUN,24 h,16.2 mg/dL
same,CRE,24 h,0.2 mg/dL
same,Ca,24 h,11.4 mg/dL
same,Cl,24 h,104.8 meq/L
same,DBIL,24 h,0.024 mg/dL
same,GLC,24 h,187 mg/dL
same,IP,24 h,8.7 mg/dL
same,K,24 h,4.1 meq/L
same,LDH,24 h,79.8 IU/L
same,Na,24 h,142 meq/L
same,PL,24 h,144.6 mg/dL
same,RALB,24 h,2.7 g/dL
same,TBIL,24 h,0.034 mg/dL
same,TC,24 h,78 mg/dL
same,TG,24 h,75 mg/dL
same,TP,24 h,5.6 g/dL
same,gamma-GTP,24 h,1 IU/L
